Measured values as given in patent publication US7354925B2, “Alpha aryl or heteroaryl methyl beta piperidino propanamide compounds as ORL1-receptor antagonists” (Pfizer Inc., priority 2004, dated 2008).
Structures can show the parent of a compound that is named as a salt.

What was measured:
human ORL1 receptor = target: T1, human ORL1 receptor (Homo sapiens, UniProt P41146); experiment: ORL1-receptor binding assay; conditions: [3H]nociceptin, human ORL1 receptor transfected HEK-293 cell membranes; read-out: Ki value with regard to binding affinity for the ORL1 receptor
T1 construct: purchased PerkinElmer; host or cells: HEK-293 (transfected), membranes
T1 sequence (P41146 whole entry): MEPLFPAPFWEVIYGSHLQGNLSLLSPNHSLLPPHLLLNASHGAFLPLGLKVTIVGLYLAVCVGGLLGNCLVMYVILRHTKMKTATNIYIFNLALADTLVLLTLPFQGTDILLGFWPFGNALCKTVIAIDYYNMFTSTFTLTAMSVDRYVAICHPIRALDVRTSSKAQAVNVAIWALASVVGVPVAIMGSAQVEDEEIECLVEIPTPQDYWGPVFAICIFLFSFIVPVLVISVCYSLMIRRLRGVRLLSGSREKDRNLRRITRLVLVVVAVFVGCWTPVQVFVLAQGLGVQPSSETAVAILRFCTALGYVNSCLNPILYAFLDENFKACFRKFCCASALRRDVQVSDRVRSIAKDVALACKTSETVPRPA
Method: The human ORL1 receptor transfected HEK-293 cell membranes (PerkinElmer) were incubated for 45 min at room temperature with 0.4 nM [^3H]nociceptin, 1.0 mg of wheat germ agglutinin (WGA)-coated SPA beads and various concentrations of test compounds in a final volume of 200 μL of 50 mM HEPES buffer pH 7.4 containing 10 mM MgCl2 and 1 mM EDTA. Non-specific binding (NSB) was determined by the addition of 1 μM unlabeled nociceptin. After the reaction, the assay plate was centrifuged at 1,000 rpm for 1 min and then the radioactivity was measured by WALLAC 1450 MicroBeta Trilux.

[1] = target: T2, HERG type potassium channel (Homo sapiens, UniProt Q12809); assay type: binding
T2 construct: expressed in transfected cells; host or cells: HEK-293 cells expressing HERG; membrane homogenate
T2 sequence (Q12809 whole entry): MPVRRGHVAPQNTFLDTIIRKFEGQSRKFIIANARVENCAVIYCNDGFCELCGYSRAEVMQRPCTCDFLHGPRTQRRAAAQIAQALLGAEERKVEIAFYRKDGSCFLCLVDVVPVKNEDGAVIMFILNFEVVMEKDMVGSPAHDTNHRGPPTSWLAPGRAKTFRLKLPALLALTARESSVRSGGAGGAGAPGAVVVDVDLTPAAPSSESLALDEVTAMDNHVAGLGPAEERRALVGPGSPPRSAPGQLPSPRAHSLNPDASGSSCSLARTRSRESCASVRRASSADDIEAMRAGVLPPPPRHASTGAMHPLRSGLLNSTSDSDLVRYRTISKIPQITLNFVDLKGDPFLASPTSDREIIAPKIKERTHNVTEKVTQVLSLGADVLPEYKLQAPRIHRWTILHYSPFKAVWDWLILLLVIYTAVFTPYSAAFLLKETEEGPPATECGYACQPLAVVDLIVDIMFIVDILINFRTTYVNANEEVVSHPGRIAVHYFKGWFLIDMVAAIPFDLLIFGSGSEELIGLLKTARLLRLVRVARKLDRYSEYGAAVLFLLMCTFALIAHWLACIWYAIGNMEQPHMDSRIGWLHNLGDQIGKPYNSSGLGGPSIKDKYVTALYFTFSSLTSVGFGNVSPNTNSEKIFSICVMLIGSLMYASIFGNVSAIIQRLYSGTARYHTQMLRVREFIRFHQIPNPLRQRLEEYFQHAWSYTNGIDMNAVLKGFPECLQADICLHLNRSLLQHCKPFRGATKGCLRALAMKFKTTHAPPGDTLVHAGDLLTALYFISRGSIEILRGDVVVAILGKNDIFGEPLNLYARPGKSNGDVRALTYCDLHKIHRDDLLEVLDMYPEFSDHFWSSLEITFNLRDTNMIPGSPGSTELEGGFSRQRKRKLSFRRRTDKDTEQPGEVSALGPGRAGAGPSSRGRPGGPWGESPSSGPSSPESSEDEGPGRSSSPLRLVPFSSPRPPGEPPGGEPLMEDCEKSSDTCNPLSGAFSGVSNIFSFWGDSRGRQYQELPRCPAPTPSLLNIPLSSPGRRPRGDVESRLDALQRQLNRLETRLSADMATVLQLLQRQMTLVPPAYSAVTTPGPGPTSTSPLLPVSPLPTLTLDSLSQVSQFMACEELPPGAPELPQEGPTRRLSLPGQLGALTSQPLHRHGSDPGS
Method: Cell paste of HEK-293 cells expressing the HERG product can be suspended in 10-fold volume of 50 mM Tris buffer adjusted at pH 7.5 at 25° C. with 2 M HCl containing 1 mM MgCl2, 10 mM KCl. The cells were homogenized using a Polytron homogenizer (at the maximum power for 20 seconds) and centrifuged at 48,000 g for 20 min at 4° C. The pellet was resuspended, homogenized and centrifuged once more in the same manner. The resultant supernatant was discarded and the final pellet was resuspended (10-fold volume of 50 mM Tris buffer) and homogenized at the maximum power for 20 sec. The membrane homogenate was aliquoted and stored at −80° C. until use. Analiquot was used for protein concentration determination using a Protein Assay Rapid Kit and ARVO SX plate reader (Wallac). […] Saturation was determined by incubating 20 μL of [^3H]-dofetilide and 160 μl of membrane homogenates (20-30 μg protein per well) for 60 min at room temperature in the absence or presence of 10 μM dofetilide at final concentrations (20 μL) for total or nonspecific binding, respectively. […] Receptor-bound radioactivity was quantified by liquid scintillation counting using Packard LS counter.
For the competition assay, compounds were diluted in 96 well polypropylene plates as 4-point dilutions in semi-log format. […] Receptor-bound radio activity was quantified by counting Wallac MicroBeta plate counter.

| SMILES | Ki (human ORL1 receptor) [nM] | activity in the dofetilide binding assay [1] |
| --- | --- | --- |
| CN(C)C(=O)C(CN1CCC2(CC1)OCc1ccc(F)cc12)Cn1cccn1 (single isomer, unassigned; (-)) [Example 102, (−)-3-(6-FLUORO-1′H,3H-SPIRO[2-BENZOFURAN-1,4′-PIPERIDIN]-1′-YL)-N,N-DIMETHYL-2-(1H-PYRAZOL-1-YLMETHYL)P[…], CITRATE] | 12 |  |
| CN(C)C(=O)C(Cc1cscn1)CN1CCC2(CC1)OCc1ccc(F)cc12 (single isomer, unassigned; (-)) [Example 92, (−)-3-(6-FLUORO-1′H,3H-SPIRO[2-BENZOFURAN-1,4′-PIPERIDIN]-1′-YL)-N,N-DIMETHYL-2-(1,3-THIAZOL-4-YLMETHYL)P[…], CITRATE] | 5 |  |
| CN1C(=O)C(CN2CCC3(CCc4ccccc43)CC2)Cc2ccccc21 (stereo not drawn) [Compound (i)] |  | potent activity |
